Here are results for 2 molecules from patent US7368567B2, “Arylsulfonyl benzodioxanes, benzoxazines and benzothiazines as 5-HT6 antagonists” (Roche Palo Alto LLC, priority 2004, dated 2008).

As a reminder, the melting point is the temperature of the solid-liquid transition.

The target of series [1] is T1, recombinant human 5-HT6 receptor (Homo sapiens, UniProt P50406).
T1 construct: expressed in transfected cells
The series is described as follows: Radioligand binding, [3H]LSD competition in HEK293 cell membranes. The settings on record: [3H]LSD displacement, 37° C., pH 7.4, read-out: pKi for the 5-HT6 receptor (converted). As to the method:
(§1) The binding activity of compounds of this invention in vitro was determined as follows. Duplicate determinations of 5-HT6 ligand affinity were made by competing for binding of [^3H]LSD in cell membranes derived from HEK293 cells stably expressing recombinant human 5-HT6 receptor. Duplicate determinations of 5-HT2A ligand affinity were made by competing for binding of [^3H]Ketanserin (3-(2-(4-(4-fluorobenzoyl)piperidinol)ethyl)-2,4(1H,3H)-quinazolinedione) in cell membranes derived from CHO—K1 cells stably expressing recombinant human 5-HT2A receptor. Membranes were prepared from HEK 293 cell lines by the method described by Monsma et al., Molecular Pharmacology, Vol. 43 pp. 320-327 (1993), and from CHO—K1 cell lines as described by Bonhaus et al., Br J Pharmacol. June;1 15(4):622-8 (1995).
(§2) For estimation of affinity at the 5-HT6 receptor, all determinations were made in assay buffer containing 50 mM Tris-HCl, 10 mM MgSO4, 0.5 mM EDTA, 1 mM ascorbic acid, pH 7.4 at 37° C., in a 250 microliter reaction volume. […]
(§3) Assay tubes containing [^3H] […] LSD or [^3H]Ketanserin were determined as radioactive counts per minute using Packard TopCount.
(§4) Displacement of [^3H]LSD or [^3H]Ketanserin from the binding sites was quantified by fitting concentration-binding data to a 4-parameter logistic equation: […]

Series [2] deals with T2, recombinant human 5-HT2A receptor (Homo sapiens, UniProt P28223).
T2 construct: expressed in transfected cells
T2 sequence (P28223 whole entry): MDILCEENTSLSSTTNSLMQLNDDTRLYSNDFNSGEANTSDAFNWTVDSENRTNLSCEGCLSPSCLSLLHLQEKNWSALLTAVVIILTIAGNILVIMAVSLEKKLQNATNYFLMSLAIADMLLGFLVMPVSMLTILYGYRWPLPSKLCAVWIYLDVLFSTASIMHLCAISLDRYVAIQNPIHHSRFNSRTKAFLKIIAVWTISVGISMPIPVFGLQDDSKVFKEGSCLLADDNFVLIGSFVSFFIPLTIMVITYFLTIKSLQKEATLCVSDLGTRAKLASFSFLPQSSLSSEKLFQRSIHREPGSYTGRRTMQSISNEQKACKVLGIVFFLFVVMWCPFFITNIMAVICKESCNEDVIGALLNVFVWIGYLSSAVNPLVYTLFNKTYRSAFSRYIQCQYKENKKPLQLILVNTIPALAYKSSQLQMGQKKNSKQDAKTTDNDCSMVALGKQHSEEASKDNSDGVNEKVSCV
The series is described as follows: Radioligand binding, [3H]Ketanserin competition in CHO-K1 cell membranes. The settings on record: [3H]Ketanserin displacement, 32° C., pH 7.4, read-out: pKi for the 5-HT2A receptor (converted). As to the method:
as §1, §2, §3, §4

T1 sequence (P50406 whole entry): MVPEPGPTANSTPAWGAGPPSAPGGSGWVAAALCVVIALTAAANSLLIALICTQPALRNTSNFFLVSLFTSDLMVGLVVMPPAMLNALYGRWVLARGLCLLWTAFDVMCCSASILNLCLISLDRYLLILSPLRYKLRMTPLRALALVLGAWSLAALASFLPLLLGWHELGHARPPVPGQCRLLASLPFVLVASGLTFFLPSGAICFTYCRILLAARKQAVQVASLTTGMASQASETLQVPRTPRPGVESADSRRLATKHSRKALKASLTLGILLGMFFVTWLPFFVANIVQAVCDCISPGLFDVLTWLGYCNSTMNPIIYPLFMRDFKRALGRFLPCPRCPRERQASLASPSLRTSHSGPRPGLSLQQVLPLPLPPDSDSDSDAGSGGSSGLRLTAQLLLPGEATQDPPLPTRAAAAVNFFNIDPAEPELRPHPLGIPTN

As for `CNC[C@@H]1COc2ccc(S(=O)(=O)c3ccccc3)cc2O1` [(7-Benzenesulfonyl-2,3-dihydro-benzo[1,4]dioxin-2-(R)-ylmethyl)-methyl-amine], the Ki in series [1] is around 0.166 nM.
For `CNC[C@H]1COc2ccc(S(=O)(=O)c3cccc(F)c3)cc2O1` [[7-(3-Fluoro-benzenesulfonyl)-2,3-dihydro-benzo[1,4]dioxin-2-(S)-ylmethyl]-methyl-amine], the melting point is 245.8 to 246.4 °C. Also, the Ki in series [2] is around 18.2 nM.
